Test results as given in US20220169628A1 (University of Florida Research Foundation, Incorporated, priority 2019, published 2022).
Like-named read-outs stand apart in the source and are kept apart here.

Experiments:
RS4;11 cells = assay: Cell viability assay, MTS, 48 h, RS4;11; format: cell-based; settings: 48 hours, read-out: IC50 (48 hours) RS4;11
Protocol: (§1) Acute lymphoblastic leukemia cells (MOLT-4 and RS4; 11) or small cell lung cancer (NCI-H146 or simply H146) were incubated with increasing concentrations of Bcl-xL degraders for 48 h. Cell viability was measured by tetrazolium-based MTS assay.

MOLT-4 cells = assay: Cell viability assay, MTS, 48 h, MOLT-4; format: cell-based; settings: 48 hours, read-out: IC50 (48 hours) MOLT-4
Protocol: as §1

| Compound | IC50 (RS4;11 cells; Homo sapiens, RS4-11, 48 h) [nM] | IC50 (MOLT-4 cells; Homo sapiens, MOLT-4, 48 h) [nM] | IC50 (RS4;11 cells) [nM] | IC50 (MOLT-4 cells) [nM] |
| --- | --- | --- | --- | --- |
| Cc1ncsc1-c1ccc([C@H](C)NC(=O)[C@@H]2C[C@@H](O)CN2C(=O)[C@@H](NC(=O)CCCCCC#CC#CC2(C)CCC(c3ccc(Cl)cc3)=C(CN3CCN(c4ccc(C(=O)NS(=O)(=O)c5ccc(N[C@H](CCN6CCOCC6)CSc6ccccc6)c(S(=O)(=O)C(F)(F)F)c5)cc4)CC3)C2)C(C)(C)C)cc1 (stereo partly drawn) [degrader #12, (2S,4R)-1-((2S)-2-(10-(4′-chloro-4-methyl-6-((4-(4-(((4-(((R)-4-morpholino-1-(phenylthio)butan-2-yl)amino)-3-((trifluoromethyl)sulfonyl)phenyl)sulfonyl)carbamoyl)phenyl)piperazin-1-yl)methyl)-2,3,4,5-tetrahydro-[1,1′-biphenyl]-4-yl)deca-7,9-diynamido)-3,3-dimethylbutanoyl)-4-hydroxy-N—((S)-1-(4-(4-methylthiazol-5-yl)phenyl)ethyl)pyrrolidine-2-carboxamide] | > 500 | > 500 |  |  |
| Cc1ncsc1-c1ccc([C@H](C)NC(=O)[C@@H]2C[C@@H](O)CN2C(=O)[C@@H](NC(=O)CCCCC(=O)N2CCN(CC3(C)CCC(c4ccc(Cl)cc4)=C(CN4CCN(c5ccc(C(=O)NS(=O)(=O)c6ccc(N[C@H](CCN7CCOCC7)CSc7ccccc7)c(S(=O)(=O)C(F)(F)F)c6)cc5)CC4)C3)CC2)C(C)(C)C)cc1 (stereo partly drawn) [degrader #15, (2S,4R)-1-((2S)-2-(6-(4-((4′-chloro-4-methyl-6-((4-(4-(((4-(((R)-4-morpholino-1-(phenylthio)butan-2-yl)amino)-3-((trifluoromethyl)sulfonyl)phenyl)sulfonyl)carbamoyl)phenyl)piperazin-1-yl)methyl)-2,3,4,5-tetrahydro-[1,1′-biphenyl]-4-yl)methyl)piperazin-1-yl)-6-oxohexanamido)-3,3-dimethylbutanoyl)-4-hydroxy-N—((S)-1-(4-(4-methylthiazol-5-yl)phenyl)ethyl)pyrrolidine-2-carboxamide] | 50 to 150 | 50 to 150 |  |  |
| Cc1ncsc1-c1ccc([C@H](C)NC(=O)[C@@H]2C[C@@H](O)CN2C(=O)[C@@H](NC(=O)CCCCCCC(=O)N2CCN(C[C@@]3(C)CCC(c4ccc(Cl)cc4)=C(CN4CCN(c5ccc(C(=O)NS(=O)(=O)c6ccc(N[C@H](CCN7CCOCC7)CSc7ccccc7)c(S(=O)(=O)C(F)(F)F)c6)cc5)CC4)C3)CC2)C(C)(C)C)cc1 [degrader #43, (2S,4R)-1-((S)-2-(8-(4-(((S)-4′-chloro-4-methyl-6-((4-(4-(((4-(((R)-4-morpholino-1-(phenylthio)butan-2-yl)amino)-3-((trifluoromethyl)sulfonyl)phenyl)sulfonyl)carbamoyl)phenyl)piperazin-1-yl)methyl)-2,3,4,5-tetrahydro-[1,1′-biphenyl]-4-yl)methyl)piperazin-1-yl)-8-oxooctanamido)-3,3-dimethylbutanoyl)-4-hydroxy-N—((S)-1-(4-(4-methylthiazol-5-yl)phenyl)ethyl)pyrrolidine-2-carboxamide] | 150 to 500 | 50 to 150 |  |  |
| Cc1ncsc1-c1ccc([C@@H](C)NC(=O)[C@@H]2C[C@@H](O)CN2C(=O)[C@@H](NC(=O)CCCCCCCCCN2CCC(c3ccc(Cl)cc3)=C(CN3CCN(c4ccc(C(=O)NS(=O)(=O)c5ccc(N[C@H](CCN6CCOCC6)CSc6ccccc6)c(S(=O)(=O)C(F)(F)F)c5)cc4)CC3)C2)C(C)(C)C)cc1 [compound 88, (2S,4R)-1-((S)-2-(10-(4-(4-chlorophenyl)-5-((4-(4-(((4-(((R)-4-morpholino-1-(phenylthio)butan-2-yl)amino)-3-((trifluoromethyl)sulfonyl)phenyl)sulfonyl)carbamoyl)phenyl)piperazin-1-yl)methyl)-3,6-dihydropyridin-1(2H)-yl)decanamido)-3,3-dimethylbutanoyl)-4-hydroxy-N—((R)-1-(4-(4-methylthiazol-5-yl)phenyl)ethyl)pyrrolidine-2-carboxamide] | > 500 | 150 to 500 |  |  |
| (S)-13-((2S,4R)-4-hydroxy-2-(((S)-1-(4-(4-methylthiazol-5-yl)phenyl)ethyl)carbamoyl)pyrrolidine-1-carbonyl)-14,14-dimethyl-11-oxo-3,6,9-trioxa-12-azapentadecyl 4-(4-chlorophenyl)-5-((4-(4-(((4-(((R)-4-morpholino-1-(phenylthio)butan-2-yl)amino)-3-((trifluoromethyl)sulfonyl)phenyl)sulfonyl)carbamoyl)phenyl)piperazin-1-yl)methyl)-3,6-dihydropyridine-1(2H)-carboxylate [Example 8] |  |  | 150 to 500 | 150 to 500 |
| CC1(CNC(=O)CCCCCCCCCCNc2cccc3c2C(=O)N(C2CCC(=O)NC2=O)C3=O)CCC(c2ccc(Cl)cc2)=C(CN2CCN(c3ccc(C(=O)NS(=O)(=O)c4ccc(N[C@H](CCN5CCOCC5)CSc5ccccc5)c(S(=O)(=O)C(F)(F)F)c4)cc3)CC2)C1 (stereo partly drawn) [compound 75, 4-(4-((4′-chloro-4-((11-((2-(2,6-dioxopiperidin-3-yl)-1,3-dioxoisoindolin-4-yl)amino)undecanamido)methyl)-4-methyl-3,4,5,6-tetrahydro-[1,1′-biphenyl]-2-yl)methyl)piperazin-1-yl)-N-((4-(((R)-4-morpholino-1-(phenylthio)butan-2-yl)amino)-3-((trifluoromethyl)sulfonyl)phenyl)sulfonyl)benzamide] | 150 to 500 | 50 to 150 |  |  |

Further lines, with some results ahead:

| IC50 (RS4;11 cells; Homo sapiens, RS4-11, 48 h) [nM] | IC50 (MOLT-4 cells; Homo sapiens, MOLT-4, 48 h) [nM] | Compound | IC50 (RS4;11 cells) [nM] | IC50 (MOLT-4 cells) [nM] |
| --- | --- | --- | --- | --- |
| 50 to 150 | 50 to 150 | CC1(CNC(=O)CCCCNc2cccc3c2C(=O)N(C2CCC(=O)NC2=O)C3=O)CCC(c2ccc(Cl)cc2)=C(CN2CCN(c3ccc(C(=O)NS(=O)(=O)c4ccc(N[C@H](CCN5CCOCC5)CSc5ccccc5)c(S(=O)(=O)C(F)(F)F)c4)cc3)CC2)C1 (stereo partly drawn) [compound 70, 4-(4-((4′-chloro-4-((5-((2-(2,6-dioxopiperidin-3-yl)-1,3-dioxoisoindolin-4-yl)amino)pentanamido)methyl)-4-methyl-3,4,5,6-tetrahydro-[1,1′-biphenyl]-2-yl)methyl)piperazin-1-yl)-N-((4-(((R)-4-morpholino-1-(phenylthio)butan-2-yl)amino)-3-((trifluoromethyl)sulfonyl)phenyl)sulfonyl)benzamide] |  |  |
| 50 to 150 | < 50 | CC1(CNC(=O)CCCCCCCCNc2cccc3c2C(=O)N(C2CCC(=O)NC2=O)C3=O)CCC(c2ccc(Cl)cc2)=C(CN2CCN(c3ccc(C(=O)NS(=O)(=O)c4ccc(N[C@H](CCN5CCOCC5)CSc5ccccc5)c(S(=O)(=O)C(F)(F)F)c4)cc3)CC2)C1 (stereo partly drawn) [compound 74, 4-(4-((4′-chloro-4-((9-((2-(2,6-dioxopiperidin-3-yl)-1,3-dioxoisoindolin-4-yl)amino)nonanamido)methyl)-4-methyl-3,4,5,6-tetrahydro-[1,1′-biphenyl]-2-yl)methyl)piperazin-1-yl)-N-((4-(((R)-4-morpholino-1-(phenylthio)butan-2-yl)amino)-3-((trifluoromethyl)sulfonyl)phenyl)sulfonyl)benzamide] |  |  |
| < 50 | 50 to 150 | Cc1ncsc1-c1ccc([C@H](C)NC(=O)[C@@H]2C[C@@H](O)CN2C(=O)[C@@H](NC(=O)CCCCCCC(=O)N2CC3(CCN(CC4(C)CCC(c5ccc(Cl)cc5)=C(CN5CCN(c6ccc(C(=O)NS(=O)(=O)c7ccc(N[C@H](CCN8CCOCC8)CSc8ccccc8)c(S(=O)(=O)C(F)(F)F)c7)cc6)CC5)C4)CC3)C2)C(C)(C)C)cc1 (stereo partly drawn) [degrader #32, (2S,4R)-1-((2S)-2-(8-(7-((4′-chloro-4-methyl-6-((4-(4-(((4-(((R)-4-morpholino-1-(phenylthio)butan-2-yl)amino)-3-((trifluoromethyl)sulfonyl)phenyl)sulfonyl)carbamoyl)phenyl)piperazin-1-yl)methyl)-2,3,4,5-tetrahydro-[1,1′-biphenyl]-4-yl)methyl)-2,7-diazaspiro[3.5]nonan-2-yl)-8-oxooctanamido)-3,3-dimethylbutanoyl)-4-hydroxy-N—((S)-1-(4-(4-methylthiazol-5-yl)phenyl)ethyl)pyrrolidine-2-carboxamide] |  |  |
| < 50 | < 50 | CC1(CNC(=O)CCCCCCCNc2cccc3c2C(=O)N(C2CCC(=O)NC2=O)C3=O)CCC(c2ccc(Cl)cc2)=C(CN2CCN(c3ccc(C(=O)NS(=O)(=O)c4ccc(N[C@H](CCN5CCOCC5)CSc5ccccc5)c(S(=O)(=O)C(F)(F)F)c4)cc3)CC2)C1 (stereo partly drawn) [compound 73, 4-(4-((4′-chloro-4-((8-((2-(2,6-dioxopiperidin-3-yl)-1,3-dioxoisoindolin-4-yl)amino)octanamido)methyl)-4-methyl-3,4,5,6-tetrahydro-[1,1′-biphenyl]-2-yl)methyl)piperazin-1-yl)-N-((4-(((R)-4-morpholino-1-(phenylthio)butan-2-yl)amino)-3-((trifluoromethyl)sulfonyl)phenyl)sulfonyl)benzamide] |  |  |
| < 50 | 50 to 150 | Cc1ncsc1-c1ccc([C@H](C)NC(=O)[C@@H]2C[C@@H](O)CN2C(=O)[C@@H](NC(=O)CCCCC(=O)N2CC3(CCN(CC4(C)CCC(c5ccc(Cl)cc5)=C(CN5CCN(c6ccc(C(=O)NS(=O)(=O)c7ccc(N[C@H](CCN8CCOCC8)CSc8ccccc8)c(S(=O)(=O)C(F)(F)F)c7)cc6)CC5)C4)CC3)C2)C(C)(C)C)cc1 (stereo partly drawn) [degrader #30, (2S,4R)-1-((2S)-2-(6-(7-((4′-chloro-4-methyl-6-((4-(4-(((4-(((R)-4-morpholino-1-(phenylthio)butan-2-yl)amino)-3-((trifluoromethyl)sulfonyl)phenyl)sulfonyl)carbamoyl)phenyl)piperazin-1-yl)methyl)-2,3,4,5-tetrahydro-[1,1′-biphenyl]-4-yl)methyl)-2,7-diazaspiro[3.5]nonan-2-yl)-6-oxohexanamido)-3,3-dimethylbutanoyl)-4-hydroxy-N—((S)-1-(4-(4-methylthiazol-5-yl)phenyl)ethyl)pyrrolidine-2-carboxamide] |  |  |
